Columns and labels:
[1] = tested on: sAPPβ in H4 human neuroglioma cells over-expressing the wild-type human APP695; experiment: sAPPβ Whole-Cell Assay (WCA); format: cell-based; settings: 18 h
Procedure: sAPPβ Whole-Cell Assay (WCA): sAPPβ, the primary cleavage product of BACE1, was determined in H4 human neuroglioma cells over-expressing the wild-type human APP695. […] The colorimetric reaction was read by an EnVision (PerkinElmer) plate-reader.

human BACE2 = human BACE2 (Homo sapiens (Human), UniProt Q9Y5Z0); experiment: BACE2 binding assay (SPA), BACE2/BACE1 Binding Ratio; settings: ratio of IC50 from respective binding assays, pH 6.0
Sequence of human BACE2 (Q9Y5Z0 63-518): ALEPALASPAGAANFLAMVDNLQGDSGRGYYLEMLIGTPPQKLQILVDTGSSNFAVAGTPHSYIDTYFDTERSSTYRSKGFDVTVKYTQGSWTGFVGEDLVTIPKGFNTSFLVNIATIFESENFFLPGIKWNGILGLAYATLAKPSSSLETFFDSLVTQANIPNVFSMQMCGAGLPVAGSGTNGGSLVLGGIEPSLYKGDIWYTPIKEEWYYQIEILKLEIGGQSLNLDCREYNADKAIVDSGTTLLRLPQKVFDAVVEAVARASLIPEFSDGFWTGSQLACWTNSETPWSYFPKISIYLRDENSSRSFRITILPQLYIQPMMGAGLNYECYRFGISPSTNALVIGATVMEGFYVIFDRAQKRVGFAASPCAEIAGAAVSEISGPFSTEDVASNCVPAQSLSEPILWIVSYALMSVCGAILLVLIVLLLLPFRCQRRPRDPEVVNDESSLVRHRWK
Procedure: BACE2/BACE1 Binding Ratio: The BACE1 and BACE2 binding assays measured beta-site amyloid precursor protein-cleaving enzyme (BACE) binding as a decrease in the counts of radioligand bound in a scintillation proximity assay (SPA). […] Full length human BACE1 or BACE2 over-expressed in HEK cells was prepared by Pfizer scientists. Frozen stock cell paste was reacted in 50 mM sodium acetate buffer (pH=6.0) containing 3H-(4aR,6R,8aS)-8a-(2,4-difluorophenyl)-6-(1-methyl-1H-pyrazol-4-yl)-4,4a,5,6,8,8a-hexahydropyrano[3,4-d][1,3]thiazin-2-amine ligand, SPA bead and 60 μM to 600 pM of test compound in an assay volume of 27 uL. The compound plate also contained positive (BACE inhibitor) and negative (DMSO) control wells. The binding was carried out at room temperature for 30 minutes and then the plates were read on a TriLux Microbeta reader to determine the number of counts bound.

GSH Incubation Assay = format: in vitro ADME; settings: following incubations with glutathione
Procedure: GSH Incubation Assay: The test compound (10 μM in DMSO) was incubated with L-glutathione (50 mM, prepared in 100 mM postassium phosphate buffer) at 37° C. for 4 hours and then analyzed by HPLC-UV/MS/MS without work-up. Thermo Accela HPLC and Velos Pro Orbitrap Elite (S/N: SN05189B) operating in positive mode with a source voltage of 3.5 kV with data dependant processing. […] Product assignments were based on high resolution mass spectrometer fragmentation.

NC1=N[C@@]2(c3cc(NC(=O)c4ccc(OC(F)F)cn4)ccc3F)CO[C@@H](C(F)(F)F)C[C@H]2CS1 [Comparator 6]
IC50 [1]: < 1 nM | BACE2/BACE1 Binding Ratio (human BACE2): 1.0

C[C@H]1C[C@H]2CSC(N)=N[C@@]2(c2cc(NC(=O)c3ccc(Cl)cn3)ccc2F)CO1 [Comparator 7]
IC50 [1]: < 1 nM | BACE2/BACE1 Binding Ratio (human BACE2): 1.0

C[C@H]1C[C@H]2CSC(N)=N[C@@]2(c2nc(NC(=O)c3ccc(OC(F)F)cn3)cs2)CO1 [Example 1, N-{2-[(4aR,6S,8aR)-2-amino-6-methyl-4,4a,5,6-tetrahydropyrano[3,4-d][1,3]thiazin-8a(8H)-yl]-1,3-thiazol-4-yl}-5-(difluoromethoxy)pyridine-2-carboxamide]
formation of GSH adducts (GSH Incubation Assay): not detected

C[C@H]1C[C@H]2CSC(N)=N[C@@]2(c2nc(NC(=O)c3cnc(OC(F)F)cn3)cs2)CO1 [Example 2, N-{2-[(4aR,6S,8aR)-2-amino-6-methyl-4,4a,5,6-tetrahydropyrano[3,4-d][1,3]thiazin-8a(8H)-yl]-1,3-thiazol-4-yl}-5-(difluoromethoxy)pyrazine-2-carboxamide]
formation of GSH adducts (GSH Incubation Assay): not detected

C[C@H]1C[C@H]2CSC(N)=N[C@@]2(c2nc(NC(=O)c3ccc(Cl)cn3)cs2)CO1 [Example 7, N-{2-[(4aR,6S,8aR)-2-amino-6-methyl-4,4a,5,6-tetrahydropyrano[3,4-d][1,3]thiazin-8a(8H)-yl]-1,3-thiazol-4-yl}-5-chloropyridine-2-carboxamide]
formation of GSH adducts (GSH Incubation Assay): not detected

Cc1cc(OC(F)F)cnc1C(=O)Nc1csc([C@]23CO[C@@H](C)C[C@H]2CSC(N)=N3)n1 [Example 45, N-{2-[(4aR,6S,8aR)-2-amino-6-methyl-4,4a,5,6-tetrahydropyrano[3,4-d][1,3]thiazin-8a(8H)-yl]-1,3-thiazol-4-yl}-5-(difluoromethoxy)-3-methylpyridine-2-carboxamide]
formation of GSH adducts (GSH Incubation Assay): not detected

Reference: patent US9744173B2, “2-amino 6-methyl-4,4a,5,6-tetrahydropyrano[3,4-d][1,3]thiazin-8a(8H)-yl-1,3-thiazol-4-yl amides” (Pfizer Inc., priority 2014, dated 2017)
